{"source": "patent US9452998B2", "about": "“Protein kinase C inhibitors and methods of their use” (NOVARTIS AG, priority 2014, dated 2016)", "key": {"[1]": {"details": "Rat Wistar-Han; Dose 0.3 mg/kg PO: 3 mg/kg"}, "[2]": {"details": "Mouse C57BL/6; Dose IV: 1 mg/kg PO: 10 mg/kg"}, "[3]": {"assay": "in vivo", "details": "Wistar-Han, rat"}, "[4]": {"assay": "in vivo", "details": "C57BL/6, mouse"}}}
{"smiles": "Nc1ncc(-c2ncccc2OC(F)(F)F)nc1C(=O)Nc1ncccc1N1CCC(N)CC1", "note": "[Example 2, 3-amino-N-(3-(4-aminopiperidin-1-yl)pyridin-2-yl)-6-(3-(trifluoromethoxy)pyridin-2-yl)pyrazine-2-carboxamide]", "values": [{"measurement": "Vss", "setting": "[1]", "value": 1.1, "unit": "L/kg"}, {"measurement": "Oral BA (% F)", "setting": "[2]", "value": 6, "unit": "% F"}, {"measurement": "AUC", "setting": "[3]; iv, 0.3 mg/kg", "value": 0.38, "unit": "µM·h"}, {"measurement": "AUC", "setting": "[3]; po, 3 mg/kg", "value": 2.77, "unit": "µM·h"}, {"measurement": "Cmax", "setting": "[3]; po, 3 mg/kg", "value": 756, "unit": "nM"}, {"measurement": "Tmax", "setting": "[3]; po, 3 mg/kg", "value": 90, "unit": "min"}, {"measurement": "half-life", "setting": "[4]", "value": 30, "unit": "min"}, {"measurement": "Vd", "setting": "[4]; intravenous, 1 mg/kg", "value": 0.4, "unit": "L/kg"}, {"measurement": "clearance", "setting": "[4]; intravenous, 1 mg/kg", "value": 14, "unit": "mL/min/kg"}, {"measurement": "Cmax", "setting": "[4]; po, 10 mg/kg", "value": 946, "unit": "nM"}, {"measurement": "Tmax", "setting": "[4]; po, 10 mg/kg", "value": 18, "unit": "min"}]}
